Laboratory results from patent US9267949B2, “Alkylamino BODIPY dyes as selective fluorescent probes for proteins and mouse embryonic stem cells” (National University of Singapore, priority 2011, dated 2016).

Key:
[1] = Quantum yield measurements; type: physicochemical; details: referred to Rhodamine B in EtOH, excitation 510 nm, emission integrated 540-800 nm
Experimental: Quantum yields were calculated by measuring the integrated emission area of the fluorescent spectra, and referring them to the area measured for Rhodamine B in EtOH after excitation at 510 nm (ΦRho-B=0.70). Quantum yields for the BDM products were then calculated using equation below, where F represents the area of fluorescent emission, n is reflective index of the solvent, and Abs is absorbance at excitation wavelength selected for standards and samples. Emission was integrated from 540 nm to 800 nm.

[2] = Spectroscopic properties of the BDM library (absorbance and emission maxima); type: physicochemical

Compound | φ (quantum yield) [1] | λmax (ABS) [2] [nm] | λmax (EM) [2] [nm]
COc1ccc2[nH]cc(/C=C/C3=[N+]4C(=C(CCN)c5cccn5[B-]4(F)F)C(C)=C3)c2c1 [BDM-93] | 0.06 | 592 | 653
COc1cccc(/C=C/C2=[N+]3C(=C(CCN)c4cccn4[B-]3(F)F)C(C)=C2)c1O [BDM-97] | 0.04 | 561 | 572
CC1=CC(/C=C/c2ccc(Br)s2)=[N+]2C1=C(CCN)c1cccn1[B-]2(F)F [BDM-100] | 0.43 | 571 | 582
CC1=CC(/C=C/c2ccc(Oc3ccccc3)cc2)=[N+]2C1=C(CCN)c1cccn1[B-]2(F)F [BDM-101] | 0.66 | 559 | 576
CC1=CC(/C=C/c2cccc(O)c2)=[N+]2C1=C(CCN)c1cccn1[B-]2(F)F [BDM-105] | 0.18 | 556 | 567
CCN(CC)c1ccc(/C=C/C2=[N+]3C(=C(CCN)c4cccn4[B-]3(F)F)C(C)=C2)cc1 [BDM-107] | 0.05 | 617 | 681
CC1=CC(/C=C/c2c(C)cc(C)cc2C)=[N+]2C1=C(CCN)c1cccn1[B-]2(F)F [BDM-108] | 0.35 | 549 | 573
COc1ccc(/C=C/C2=[N+]3C(=C(CCN)c4cccn4[B-]3(F)F)C(C)=C2)cc1 [BDM-110] | 0.85 | 563 | 583
CC(=O)Nc1ccc(/C=C/C2=[N+]3C(=C(CCN)c4cccn4[B-]3(F)F)C(C)=C2)cc1 [BDM-111] | 0.79 | 566 | 589
COc1ccc(/C=C/C2=[N+]3C(=C(CCN)c4cccn4[B-]3(F)F)C(C)=C2)cc1O [BDM-132] | 0.05 | 568 | 594
CC1=CC(/C=C/c2ccc(C)o2)=[N+]2C1=C(CCN)c1cccn1[B-]2(F)F [BDM-135] | 0.10 | 577 | 601
CC1=CC(/C=C/c2ccc3ccccc3c2)=[N+]2C1=C(CCN)c1cccn1[B-]2(F)F [BDM-137] | 0.28 | 563 | 575
CC1=CC(/C=C/c2ccc3c(c2)OCO3)=[N+]2C1=C(CCN)c1cccn1[B-]2(F)F [BDM-139] | 0.55 | 564 | 584
CCCOc1ccc(/C=C/C2=[N+]3C(=C(CCN)c4cccn4[B-]3(F)F)C(C)=C2)cc1 [BDM-140] | 0.57 | 564 | 585
CC1=CC(/C=C/c2ccccc2C)=[N+]2C1=C(CCN)c1cccn1[B-]2(F)F [BDM-143] | 0.42 | 554 | 566
COc1cc(OC)c(OC)cc1/C=C/C1=[N+]2C(=C(CCN)c3cccn3[B-]2(F)F)C(C)=C1 [BDM-144] | 0.05 | 578 | 612
CC1=CC(/C=C/c2ccc(OCCCN(C)C)cc2)=[N+]2C1=C(CCN)c1cccn1[B-]2(F)F [BDM-163] | 0.41 | 566 | 586
CC1=CC(/C=C/c2ccc(C(C)(C)C)cc2)=[N+]2C1=C(CCN)c1cccn1[B-]2(F)F [BDM-177] | 0.78 | 556 | 567

Compound | φ (quantum yield) [1] | λmax (ABS) [2] [nm] | λmax (EM) [2] [nm]
COc1ccc(Oc2ccc(/C=C/C3=[N+]4C(=C(CCN)c5cccn5[B-]4(F)F)C(C)=C3)cc2)cc1 [BDM-178] | 0.37 | 561 | 577
COC(=O)c1ccc(-c2ccc(/C=C/C3=[N+]4C(=C(CCN)c5cccn5[B-]4(F)F)C(C)=C3)cc2)cc1 [BDM-179] | 0.26 | 566 | 581
COc1cccc(/C=C/C2=[N+]3C(=C(CCN)c4cccn4[B-]3(F)F)C(C)=C2)c1 [BDM-186] | 0.97 | 553 | 564
COc1ccc(/C=C/C2=[N+]3C(=C(CCN)c4cccn4[B-]3(F)F)C(C)=C2)c(O)c1 [BDM-192] | 0.20 | 574 | 605
COc1ccc(-c2ccc(/C=C/C3=[N+]4C(=C(CCN)c5cccn5[B-]4(F)F)C(C)=C3)o2)cc1Cl [BDM-195] | 0.03 | 600 | 663
COc1ccccc1/C=C/C1=[N+]2C(=C(CCN)c3cccn3[B-]2(F)F)C(C)=C1 [BDM-198] | 0.59 | 559 | 574
CC1=CC(/C=C/c2ccc(-c3cncnc3)cc2)=[N+]2C1=C(CCN)c1cccn1[B-]2(F)F [BDM-199] | 0.18 | 562 | 574
C=CCOc1ccccc1/C=C/C1=[N+]2C(=C(CCN)c3cccn3[B-]2(F)F)C(C)=C1 [BDM-202] | 0.52 | 559 | 575
CC1=CC(/C=C/c2ccccc2Cl)=[N+]2C1=C(CCN)c1cccn1[B-]2(F)F [BDM-207] | 0.24 | 553 | 566
CC1=CC(/C=C/c2ccc(C)cc2)=[N+]2C1=C(CCN)c1cccn1[B-]2(F)F [BDM-208] | 0.27 | 558 | 572
COc1cc(/C=C/C2=[N+]3C(=C(CCN)c4cccn4[B-]3(F)F)C(C)=C2)cc(OC)c1 [BDM-209] | 0.38 | 555 | 567
CC1=CC(/C=C/c2ccccc2OCc2ccccc2)=[N+]2C1=C(CCN)c1cccn1[B-]2(F)F [BDM-218] | 0.37 | 559 | 574
COc1cc(Br)cc(/C=C/C2=[N+]3C(=C(CCN)c4cccn4[B-]3(F)F)C(C)=C2)c1OC [BDM-228] | 0.24 | 557 | 567
CC1=CC(/C=C/c2cccc3c2OCO3)=[N+]2C1=C(CCN)c1cccn1[B-]2(F)F [BDM-231] | 0.17 | 558 | 568
CC1=CC(/C=C/c2ccc(C)s2)=[N+]2C1=C(CCN)c1cccn1[B-]2(F)F [BDM-236] | 0.22 | 574 | 594
CC1=CC(/C=C/c2ccc(I)cc2)=[N+]2C1=C(CCN)c1cccn1[B-]2(F)F [BDM-237] | 0.35 | 558 | 572
COc1ccc(F)cc1/C=C/C1=[N+]2C(=C(CCN)c3cccn3[B-]2(F)F)C(C)=C1 [BDM-239] | 0.28 | 559 | 572
CC1=CC(/C=C/c2ccccc2OC(F)F)=[N+]2C1=C(CCN)c1cccn1[B-]2(F)F [BDM-240] | 0.23 | 552 | 565
